Where two headings read alike, the source gives them in different places.
What was measured:
[1] = Stability study in the authentic autopsy urine sample (HPLC-ESI-MS-MS / HPLC-ESI-MS); format: in vitro ADME, human
Method: (§1) Due to the positive result of the identification analysis of the fluid from the Venflon, the biological material (blood and urine) was properly preserved on the same day. In the case of the urine sample, the pH was first measured using a universal indicator paper (pH = 6.0). The blood sample was preserved in a tube with sodium fluoride (NaF) and potassium oxalate (KOx). The biological material was divided into three parts, each with a volume of 1 mL. The first part was stored at 4°C. The second part was acidified with 1 M HCl: 100 µL of HCl was added to 1 mL of the blood sample to obtain pH <7, and 50 µL of HCl was added to 1 mL of the urine sample to obtain pH = 4.2. The third part of the blood and urine samples was stored at −30°C.
The 200 µL of blank, calibration and quality control (QC) blood samples and the person’s blood and urine samples were enriched with the addition of methanolic IS 4-CEC-d5. For the blood sample, the final IS concentration was 100 ng/mL, and for the urine sample, it was 1,000 ng/mL. A homogenizing element in the form of a 5-mm-diameter stainless steel bead was added to the Eppendorf Tubes containing the samples. The samples were then deproteinized with frozen acetonitrile (400 µL). The samples were then centrifuged, and the supernatant was evaporated in a stream of nitrogen in a 40°C sand bath. The dry residue was dissolved in 100 µL of a mixture of phase A and B solution in a volume ratio of 60:40 (v/v). Mobile phase A is a mixture of 2 mM ammonium formate and 0.2% formic acid solution in water (v/v), and phase B is a mixture of 2 mM ammonium formate and 0.2% formic acid solution in acetonitrile (v/v). […]
A 6410 triple-quadrupole mass spectrometer (Agilent) with an electrospray ionization (ESI) source, operated under a positive mode, was used. […] The fragmentation parameters of the analyzed compounds are listed in Table I. For the analysis of the selected potential biomarker, dihydro-3-CMC, the total ion current scanning mode was used in the m/z range of 50–650 amu. […]

[2] = Stability study in the authentic autopsy blood sample (HPLC-ESI-MS-MS / HPLC-ESI-MS); format: in vitro ADME, human
Method: as §1
The 200 µL of blank, calibration and quality control (QC) blood samples and the person’s blood and urine samples were enriched with the addition of methanolic IS 4-CEC-d5. For the blood sample, the final IS concentration was 100 ng/mL, and for the urine sample, it was 1,000 ng/mL. A homogenizing element in the form of a 5-mm-diameter stainless steel bead was added to the Eppendorf Tubes containing the samples. The samples were then deproteinized with frozen acetonitrile (400 µL). The samples were then centrifuged, and the supernatant was evaporated in a stream of nitrogen in a 40°C sand bath. The dry residue was dissolved in 100 µL of a mixture of phase A and B solution in a volume ratio of 60:40 (v/v). Mobile phase A is a mixture of 2 mM ammonium formate and 0.2% formic acid solution in water (v/v), and phase B is a mixture of 2 mM ammonium formate and 0.2% formic acid solution in acetonitrile (v/v).
An Agilent 1200 liquid chromatograph (Agilent) equipped with a binary pump (G1312 A) and an autosampler (G1329 A) was used. The chromatographic separation was performed with a Poroshell 120 EC-C18 column (3.0 × 100 mm, particle size 2.7 μm, Agilent). The column was thermostated at 40°C.
The flow of the mobile phases through the chromatographic column occurred at a programmed gradient of mobile phase composition and flow rate (initially, 95% of phase A and 5% of phase B at a flow rate of 0.5 mL/min; then, the proportion of phases was increased linearly to 90% of phase B at a flow rate of 1.0 mL/min at 10 minutes, and the condition was maintained for 2 min). Subsequently, the proportion of phases was increased linearly to 95% of phase B at a flow rate of 1.0 mL/min at 15 minutes. The volume of the samples injected into the chromatographic column was 15 μL.
A 6410 triple-quadrupole mass spectrometer (Agilent) with an electrospray ionization (ESI) source, operated under a positive mode, was used. The operational parameters of the ESI source were as follows: vaporizing temperature 350 °C, pressure of the nebulizing gas 40 psi, flow of the drying gas 9 L/min and capillary potential 3.5 kV. The multiple reaction monitoring (MRM) was employed. The fragmentation parameters of the analyzed compounds are listed in Table I. For the analysis of the selected potential biomarker, dihydro-3-CMC, the total ion current scanning mode was used in the m/z range of 50–650 amu.
While planning the experiment, the limitation was the amount of the biological material secured during the autopsy, as it came from an authentic case. The reference point (day 1) was the extraction of the biological material stored at 4°C for 24 hours using the procedure described earlier. The deproteination was performed the day after the autopsy was conducted, and the biological material was preserved. Subsequently, all the adequately preserved biological material was examined similarly after 2, 4 and 12 months. These intervals were chosen on the basis of the time that elapses between the autopsy and the intervals on which toxicological examinations are most often ordered to the Toxicology Laboratory of the Department of Forensic Medicine in Krakow by the Prosecutor’s Office. […]

[3] = GC-MS identification of 3-CMC and its metabolites in the person's urine sample after derivatization; format: in vivo, human; details: fatal poisoning case; for presence in urine sample: GC-MS after acetylation; for amount present in urine sample: GC-MS after trimethylsilylation
Method: The fluid from the Venflon was acetylated and then analyzed by gas chromatography coupled to mass spectrometry (GC--MS), as described by Synowiec et al. ([8]). Screening analysis was performed using a library developed by Pfleger, Maurer and Weber ([9]), which contains a broad group of compounds, including acetyl or trimethylsilyl derivatives, as well as the authors’ library of SCs ([8]). The analysis was conducted on the day of the autopsy, which was 2 days after the body was discovered.
Following preliminary analytical results indicating the presence of chloromethcathinone (CMC), the liquid from the Venflon further underwent a trimethylsilylation process ([8]) to distinguish the constitutional isomer of CMC.
The same procedure was carried out in the urine sample after SPE, according to the methods described in the authors’ earlier works ([10], [11]).

[4] = design: method as in PMID 30557825; details: cited from earlier work
[5] = design: method as in PMID 30636991; details: cited from earlier work
[6] = design: method as in PMID 32407550; details: cited from earlier work
[7] = design: method as in PMID 30557825; details: cited from earlier work; remark: listed apart in the source
[8] = any given storage conditions (4°C, 4°C + HCl, −30°C), 12 months

CNC(C)C(=O)c1cccc(Cl)c1 (centres unmarked) [3-CMC, 1-(3-chlorophenyl)-2-(methylamino)propan-1-one]
stability in urine sample ([1]; after acidification and freezing, investigated period 12 months): stable throughout the investigated time period
detection in urine sample ([1]; urine pH ∼6, 4°C, after 2 months): impossible to detect
decomposition on storage of the biological material ([2]; 24 hours of storage at 4°C): significant decomposition
time for which the parent substance could be detected in blood sample ([2]; acidified blood sample, ∼4°C): 4 months
time after which detection in blood sample was still possible ([2]; blood stored at −30°C): ≥ 12 months
detection in blood sample ([2]; blood stored at ∼4°C, after 2 months): no longer detected
3-CMC concentration in blood sample ([2]; storage 4°C + HCl, 2 months since autopsy): 580 ng/mL
3-CMC concentration in blood sample ([2]; storage 4°C + HCl, 4 months since autopsy): 150 ng/mL
3-CMC concentration in blood sample ([2]; storage 4°C + HCl, 12 months since autopsy): 0 ng/mL
3-CMC concentration in blood sample ([2]; storage 4°C, 2 months since autopsy): 0 ng/mL
3-CMC concentration in blood sample ([2]; storage 4°C, 4 months since autopsy): 0 ng/mL
3-CMC concentration in blood sample ([2]; storage 4°C, 12 months since autopsy): 0 ng/mL
3-CMC concentration in blood sample ([2]; storage 4°C, 1 day since autopsy (reference point, 24 hours at 4°C)): 880 ng/mL
3-CMC concentration in blood sample ([2]; storage −30°C, 2 months since autopsy): 2,200 ng/mL
3-CMC concentration in blood sample ([2]; storage −30°C, 4 months since autopsy): 2,500 ng/mL
3-CMC concentration in blood sample ([2]; storage −30°C, 12 months since autopsy): 1,100 ng/mL
3-CMC concentration in blood sample ([2]; stored at −30°C (frozen immediately)): > 2,000 ng/mL
presence in urine sample [3]: presence
amount present in urine sample [3]: trace amounts

CNC(C)C(O)c1cccc(Cl)c1 (centres unmarked) [dihydro-3-CMC]
stability in urine sample [1, 8]: high stability
stability in blood sample [2, 8]: high stability
presence in urine sample [3]: mainly
amount present in urine sample [3]: mainly present

CC(=O)NC(C)C(=O)c1cccc(Cl)c1 (centres unmarked) [N-desmethyl-3-CMC-AC]
presence in urine sample [3]: presence

CC(=O)NC(C)C(OC(C)=O)c1cccc(Cl)c1 (centres unmarked) [N-desmethyl-dihydro-3-CMC-2AC]
presence in urine sample [3]: presence

CNC(C)C(=O)c1ccc(Cl)cc1 (centres unmarked) [4-CMC, 4-chloromethcathinone]
estimated time for complete degradation in urine ([4]; 5°C): 4.4 months
estimated time for complete degradation in urine ([4]; 24°C): 24 days
half-life in urine sample ([4]; urine pH = 5): ~2.5 months
estimated time for complete degradation in urine ([4]; −26°C): > 3 years
decrease in concentration in serum sample ([5]; 3 days of storage at 4°C, compared to original extraction): 65%
concentration in serum sample ([5]; 113 days (∼3.7 months) after the original extraction): below the LOQ
concentration in serum sample ([5]; day 0): 11.5 ng/mL
concentration in serum sample ([5]; day 3, storage at 4°C): 4.0 ng/mL
decrease in concentration in blood sample ([6]; 3 days at 23°C): 54%
decrease in concentration in blood sample ([6]; 30 days of storage at 4°C): 63%
total decay time in blood sample ([6]; refrigerated storage, blood from an authentic case): 90 days
stability in blood sample ([6]; stored at −15°C, entire experiment (90 days)): stable
estimated time for complete degradation in blood ([7]; room temperature): 22 days
estimated time for complete degradation in blood ([7]; stored at 5°C (refrigerated), blank blood enriched with 4-CMC): ~4 months
half-life in blood sample ([7]; stored at 5°C): 1 days
estimated time for complete degradation in blood ([7]; stored at −26°C): 11.6 months

Reference: article PMC10373627, “The Stability of Synthetic Cathinones and the Study of Potential Intake Biomarkers in the Biological Material from a Case of 3-CMC Poisoning” (Journal of Analytical Toxicology, 2023)
